Laboratory results reported in US20180289763A1, “COMPOSITION CONTAINING HERBAL MEDICINE EXTRACTS OF PINELLIA AND SCUTELLARIA FOR REDUCING SIDE EFFECTS DUE TO ANTICANCER DRUGS” (COMPREHENSIVE AND INTEGRATIVE MEDICINE INSTITUTE, priority 2013, published 2018).
Marks after values point to notes of the source that are not given here.

Key:
[1] = Body weight and body weight gain in cisplatin-treated rats; format: in vivo, rat
Experimental: Body weights and body weight gains in each group that were measured after the first and fourth administrations of cisplatin and the necropsy are shown in Table 3.

[2] = system: cisplatin-induced gastrointestinal motility disorder; assay: Charcoal transit ratio in small intestine (gastrointestinal motility); format: in vivo, rat; details: for Distance charcoal meal transferred / GI charcoal transit ratio: during 30 min
Text: Also, permeation of a substance through the digestive tract represents the motility in the entire gastrointestinal tract, measurement of a charcoal transit ratio in the small intestine is known to be very useful to diagnose whether or not there is a problem in digestive motility (Wintola et al., 2010), and a decrease in the charcoal transit ratio in the small intestine indicates a decrease in digestive motility such as the fecal retention, that is, constipation (Sagar et al., 2005; Meite et al., 2010).
A total length of a small intestine and a distance that a charcoal meal was transferred in the small intestine were measured, and the charcoal transit ratio was calculated, and then the results are shown in Table 4.

[3] = system: cisplatin-induced gastrointestinal motility disorder; assay: Fecal parameters (pellet number, wet and dry weight, water content); format: in vivo, rat; details: for Fecal Dry-weight / Fecal Water content / Fecal Wet-weight / Fecal pellet number: feces of 24 hours
[4] = system: fundus antioxidant defense system; assay: Fundus antioxidant defense system (MDA, GSH, CAT, SOD); format: in vivo, rat
Text: Changes in MDA content, GSH content, SOD activity, and CAT activity in the fundus in each group that were observed are shown in Table 6.

tryptophan hydroxylase = assay: Pylorus tryptophan hydroxylase activity; format: in vivo, rat
Text: Meanwhile, in the ondansetron administered group, a change in tryptophan hydroxylase activity similar to that in the cisplatin control was shown (FIG. 3(A)).

monoamine oxidase = assay: Pylorus monoamine oxidase activity; format: in vivo, rat
Experimental: Compared to the normal vehicle control, in the cisplatin control, a significant (p<0.01) decrease in activity of a serotonin lyase, monoamine oxidase, in pyloric tissues was shown, but in the Pinelliae Rhizoma and Scutellariae Radix extract 200, 100 and 5 mg/kg administered groups, compared to the cisplatin control, significant (p<0.01) increases in monoamine oxidase activity in pyloric tissues were dose-dependently shown. Meanwhile, in the ondansetron administered group, a change in monoamine oxidase activity similar to that in the cisplatin control was shown (FIG. 3(B)).

gastrin = assay: Gastrin content in pyloric tissues; format: in vivo, rat
Text: Meanwhile, in the ondansetron administered group, a change in pylorus gastrin content similar to that in the cisplatin control was shown (FIG. 4(A)).

serotonin = assay: Serotonin content in pyloric tissues; format: in vivo, rat
Text: Meanwhile, in the ondansetron administered group, a change in pylorus serotonin content similar to that in the cisplatin control was shown (FIG. 4(B)).

[5] = system: gastrin immunoreactive cells; assay: Gastrin immunoreactive cells in pyloric mucosa; format: in vivo, rat
Text: As a result of observing histopathological changes, the numbers of gastrin and serotonin immunoreactive cells in the pyloric mucosa and the number of serotonin immunoreactive cells in the colonic mucosa that were detected are shown in Table 9.
Meanwhile, in the ondansetron administered group, a change in the number of gastrin immunoreactive cells in the pyloric mucosa similar to that in the cisplatin control was shown (Table 9, and FIG. 8).

[6] = system: serotonin immunoreactive cells; assay: Serotonin immunoreactive cells in pyloric and colonic mucosa; format: in vivo, rat
Experimental: (§1) In the examples, to provide an integrated medical method to reduce side effects caused by a chemotherapeutic agent with respect to a patient with a neoplastic disease, an effect of co-administration of a Pinelliae Rhizoma and Scutellariae Radix extract with respect to a digestive motility disorder caused by the chemotherapeutic agent was examined. In the following examples, rats with a gastrointestinal motility disorder caused by cisplatin were used. 2 mg/kg of cisplatin was administered once a week for 5 weeks, each of 200, 100 and 50 mg/kg of the Pinelliae Rhizoma and Scutellariae Radix extracts were administered at 14 days from the fourth administration of cisplatin, influences on gastrointestinal motility, damage to a digestive tract mucosa and physiology of digestive tract endocrine cells were observed as well as an antioxidative effect, experimental results were compared to an ondansetron 1 mg/kg administered group, wherein the ondansetron was known as a representative 5-HT3 receptor blocking agent to have an effective effect on a cisplatin-induced gastrointestinal motility disorder.
(§2) In this example, as laboratory animals, Sprague-Dawley, Slc: SD rats (6-week-old males, SLC, Shizuoka, Japan) were used. 60 healthy SPF rats were purchased, acclimated for 14 days, and 8 laboratory animals having uniform body weights (intact control: 249.13±12.12 g, 232˜264 g; cisplatin treated group: 225.35±10.58 g, 206˜243 g) when fasting after three weeks of cisplatin administration per each group were selected to be used in the experiment. […] All of the laboratory animals underwent fasting for about 18 hours at each of the first treatment of cisplatin, the first drug administration and the final necropsy (even in this period, drinking water was freely provided), individuals were identified using picric acid.
(§3) To cause a gastrointestinal motility disorder, 2 mg/kg of cisplatin (Sigma-Aldrich, St. Louise, Mo., USA) was dissolved in a saline solution, and the resulting solution was intraperitoneally administered at a dose of 1 ml/kg once a week for 5 weeks, thereby causing a chronic gastrointestinal motility disorder, and in the normal vehicle control, the same dose of a saline solution, instead of cisplatin, was intraperitoneally administered by the same method.
(§4) A Pinelliae Rhizoma and Scutellariae Radix herbal medicine was dissolved in sterile distilled water at a dose of 5 ml/kg (a body weight of the animal) three weeks after the first cisplatin administration, and forcibly and orally administered with a 5 ml syringe equipped with a metal zonde 30 minutes after the fourth cisplatin administration once a day for 14 days. The ondansetron was dissolved in a saline solution, subcutaneously administered with the same frequency as the Pinelliae Rhizoma and Scutellariae Radix herbal medicine at a dose of 1 ml/kg, and in the normal vehicle and cisplatin controls, instead of the Pinelliae Rhizoma and Scutellariae Radix extract or ondansetron, only the same dose of sterile distilled water was orally administered.
(§5) An effect on the gastrointestinal motility was evaluated by evaluating a charcoal transit ratio in the small intestine, effects on constipation were evaluated by observing a body weight, the change in fecal parameters (the fecal pellet number, the fecal weight, and the water content in the feces), the histopathological changes in the colon containing fecal pellets—changes in fecal pellet surface mucosa thickness, mucous producing cell number per mm2 of the mucosa and average mucosa thickness.

[7] = system: cisplatin-induced gastrointestinal tract damage (fundic and pyloric mucosa); assay: Histopathology of fundus and pylorus (mucosa thickness, degenerative mucosa percentage)
Experimental: as §1, §2, §3, §4, §5

[8] = system: cisplatin-induced colonic mucosa atrophy; format: in vivo, rat; details: 1 mg/kg s.c., 14 days
Text: In the cisplatin control, considerable decreases in the mucous producing cell number per unit area (mm^2) and fecal pellet surface mucous thickness were caused along with the atrophy of the total colonic mucosa containing fecal pellets, and thus, compared to the normal vehicle control, significant (p<0.01) decreases in fecal pellet-containing colonic mucosa thickness, the mucous producing cell number in the mucosa and fecal pellet surface mucous thickness were shown.

[9] = cisplatin 2 mg/kg i.p. once a week for 5 weeks
[10] = cisplatin control (2 mg/kg i.p. weekly) compared to the normal vehicle control
[11] = cisplatin control (2 mg/kg i.p. weekly) compared to the normal vehicle control, 33 to 34 days after first cisplatin
[12] = 1 mg/kg s.c., 14 days, cisplatin-treated rats
[13] = 1 mg/kg s.c., 14 days, compared to the cisplatin control
[14] = cisplatin-treated rats, at sacrifice
[15] = compared to the cisplatin control

Which results are given for N.N.[Cl][Pt][Cl] [Cisplatin, cis-diaminedichloroplatinum II]?
Body weight Sacrifice [C] [1, 9]: 195.13 ± 12.96^a g; Body weight gain Test article dosing periods [C − B] [1, 9]: −29.88 ± 3.04^d g; Body weight gain Total experiment periods [C − A] [1, 9]: −4.00 ± 7.01^d g; Body weight At 4th cisplatin treatment [B] ([1]; cisplatin 2 mg/kg i.p. once a week, three weeks after first administration): 225.00 ± 13.90^a g; change of body weight gain during the total 5-week experiment [1, 10]: −107.34%; change of body weight gain for 2 weeks after the drug administration [1, 10]: −896.67%; Distance charcoal meal transferred [2, 9]: 45.00 ± 11.08^a cm; GI charcoal transit ratio [2, 9]: 35.61 ± 8.66^a %; change of charcoal transit ratio in the small intestine [2, 10]: −53.09%; change of distance that the charcoal meal was transferred in the small intestine [2, 10]: −53.06%; Fecal Dry-weight [3, 9]: 5.14 ± 1.51 g; Fecal Water content [3, 9]: 32.86 ± 6.45^d %; Fecal Wet-weight [3, 9]: 7.66 ± 2.14^a g; Fecal pellet number ([3]; cisplatin 2 mg/kg i.p. once a week for 5 weeks, 33 to 34 days after first cisplatin): 15.75 ± 5.50^a; change of average dry weight of feces for 24 hours [3, 11]: −7.30%; change of average water content in feces excreted for 24 hours [3, 11]: −54.47%; change of average wet weight of the feces excreted for 24 hours [3, 11]: −62.34%; change of total number of fecal pellets excreted for 24 hours [3, 11]: −61.23%; Fundus Catalase [4, 9]: 44.06 ± 8.98^a nM/mim/mg tissue; Fundus Glutathione [4, 9]: 1.22 ± 0.40^d μM/mg tissue; Fundus Malondialdehyde [4, 9]: 16.24 ± 2.27^a nM/g tissue; Fundus Superoxide dismutase [4, 9]: 71.96 ± 15.54^a nM/mim/mg tissue; change of CAT activity in fundus tissues at the final sacrifice [4, 10]: −55.83%; change of GSH content in the fundus tissue at the final sacrifice [4, 10]: −72.46%; change of MDA content in fundus tissues at the final sacrifice [4, 10]: 327.30%; change of SOD activity in the fundus tissue at the final sacrifice [4, 10]: −56.87%; change of tryptophan hydroxylase activity in pyloric tissues at the final sacrifice (tryptophan hydroxylase; [10]): 184.55%; change of monoamine oxidase activity in pyloric tissues at the final sacrifice (monoamine oxidase; [10]): −68.47%; change of gastrin content in pyloric tissues at the final sacrifice (gastrin; [10]): −59.22%; change of serotonin content in pyloric tissues at the final sacrifice (serotonin; [10]): 279.57%; Number of Gastrin-IR cells in the pyloric mucosa [5, 9]: 11.75 ± 3.77^d cells/mm^2 of mucosa; change of number of gastrin immunoreactive cells per unit area of the pyloric mucosa [5, 10]: −86.42%; Number of Serotonin-IR cells in the colonic mucosa [6, 9]: 73.75 ± 11.79^a cells/mm^2 of mucosa; Number of Serotonin-IR cells in the pyloric mucosa [6, 9]: 65.38 ± 11.02^a cells/mm^2 of mucosa; change of number of serotonin immunoreactive cells per unit area of the colonic mucosa [6, 10]: 514.58%; change of number of serotonin immunoreactive cells per unit area of the pyloric mucosa [6, 10]: 530.12%; Fundus Degenerative mucosa percentage [7, 9]: 54.89 ± 10.97^d %/mucosa; Fundus Total mucosa thickness [7, 9]: 436.02 ± 87.18^a μm; Pylorus Degenerative mucosa percentage [7, 9]: 68.26 ± 10.44^a %/mucosa; Pylorus Total mucosa thickness [7, 9]: 146.12 ± 26.03^a μm; change of average fundic mucosa thickness [7, 10]: −47.53%; change of pylorus average mucosa thickness [7, 10]: −61.72%

What does the source list for Cc1nccn1CC1CCc2c(c3ccccc3n2C)C1=O (centres unmarked) [Ondansetron, ondansetron]?
Body weight Sacrifice [C] [1, 12]: 212.38 ± 4.66^ab g; Body weight gain Test article dosing periods [C − B] [1, 12]: −14.50 ± 5.68^de g; Body weight gain Total experiment periods [C − A] [1, 12]: 14.50 ± 11.64^de g; change of body weight gain during the total 5-week experiment [1, 13]: 463.50%; change of body weight gain for 2 weeks after the drug administration [1, 13]: 52.46%; Distance charcoal meal transferred [2, 12]: 65.13 ± 10.68^ac cm; GI charcoal transit ratio [2, 12]: 50.80 ± 8.85^ac %; change of charcoal transit ratio in the small intestine [2, 13]: 42.66%; change of distance that the charcoal meal was transferred in the small intestine [2, 13]: 44.72%; Fecal Dry-weight [3, 12]: 5.27 ± 1.10 g; Fecal Water content [3, 12]: 55.32 ± 13.07^ef %; Fecal Wet-weight [3, 12]: 12.55 ± 3.71^ab g; Fecal pellet number [3, 12]: 25.38 ± 6.95^ac; change of average dry weight of feces for 24 hours [3, 13]: 2.48%; change of average water content in feces excreted for 24 hours [3, 13]: 68.34%; change of average wet weight of the feces excreted for 24 hours [3, 13]: 63.91%; change of total number of fecal pellets excreted for 24 hours [3, 13]: 61.11%; Fundus Catalase [4, 12]: 63.48 ± 12.39^ac nM/mim/mg tissue; Fundus Glutathione [4, 12]: 1.81 ± 0.17^de μM/mg tissue; Fundus Malondialdehyde [4, 12]: 9.67 ± 1.93^ac nM/g tissue; Fundus Superoxide dismutase [4, 12]: 103.00 ± 22.32^ac nM/mim/mg tissue; change of CAT activity in fundus tissues at the final sacrifice [4, 13]: 44.10%; change of GSH content in the fundus tissue at the final sacrifice [4, 13]: 48.11%; change of MDA content in fundus tissues at the final sacrifice [4, 13]: −40.45%; change of SOD activity in the fundus tissue at the final sacrifice [4, 13]: 43.13%; change of tryptophan hydroxylase activity in pyloric tissues at the final sacrifice (tryptophan hydroxylase; [13]): −4.35%; change of monoamine oxidase activity in pyloric tissues at the final sacrifice (monoamine oxidase; [13]): 5.05%; change of gastrin content in pyloric tissues at the final sacrifice (gastrin; [13]): −3.05%; change of serotonin content in pyloric tissues at the final sacrifice (serotonin; [13]): −4.04%; Colonic mucosa thickness [8, 14]: 192.08 ± 27.34^ac μm; Fecal pellet surface mucous thickness [8, 14]: 28.00 ± 6.98^df μm; Mucous producing cell number [8, 14]: 306.63 ± 78.94^ac cells/mm^2; change of fecal pellet surface mucous thickness in the colon [8, 15]: 239.94%; change of fecal pellet-containing colon average mucosa thickness [8, 15]: 72.06%; change of mucous producing cell number in the colonic mucosa [8, 15]: 126.92%; Number of Gastrin-IR cells in the pyloric mucosa [5, 12]: 11.63 ± 3.70^d cells/mm^2 of mucosa; change of number of gastrin immunoreactive cells per unit area of the pyloric mucosa [5, 13]: −1.06%; Number of Serotonin-IR cells in the colonic mucosa [6, 12]: 73.00 ± 17.65^a cells/mm^2 of mucosa; Number of Serotonin-IR cells in the pyloric mucosa [6, 12]: 64.00 ± 10.45^a cells/mm^2 of mucosa; change of number of serotonin immunoreactive cells per unit area of the colonic mucosa [6, 13]: −1.02%; change of number of serotonin immunoreactive cells per unit area of the pyloric mucosa [6, 13]: −2.10%; Fundus Degenerative mucosa percentage [7, 12]: 35.42 ± 4.69^de %/mucosa; Fundus Total mucosa thickness [7, 12]: 592.37 ± 51.61^ac μm; Pylorus Degenerative mucosa percentage [7, 12]: 41.08 ± 10.77^ac %/mucosa; Pylorus Total mucosa thickness [7, 12]: 240.01 ± 36.08^ac μm; change of average fundic mucosa thickness [7, 13]: 35.86%; change of pylorus average mucosa thickness [7, 13]: 64.25%
